Test results reported in US11565003B2, “Mechanical opening of lipid bilayers by molecular nanomachines” (William Marsh Rice University, priority 2016, dated 2023).

Test system: synthetic bilipid vesicles
Assay: BODIPY dye release from synthetic bilipid vesicles upon UV illumination
Settings: first 15 minutes of UV exposure, 365 nm
Method: Premixed and dried synthetic phospholipid blend [1,2-dioleoyl-sn-glycero-3-phosphoethanolamine (DOPE): 1,2-dioleoyl-sn-glycero-3-phospho-L-serine (DOPS): 1,2-dioleoyl-sn-glycero-3-phosphocholine (DOPC) at a ratio of 5:3:2] were stored in a −20° C. freezer before use. To prepare the large unilamellar vesicles (LUVs), 5 mL 0.5× phosphate buffered saline (PBS) at pH 7.4 was added to swell the lipids solution (lipid concentration was 0.25 mg/mL). Then 7 μL of 210 μM BODIPY dye and 2 μL of 50 μM 1 (or 16 in the control experiments) were added to the solution. After incubation for 1 hour at room temperature with occasional vortexing, the lipids formed a cloudy suspension. […] The vesicles were then observed using a home-build confocal fluorescence microscope at 488 nm excitation and 535±50 nm emission.
Due to the highly non-polar nature of compound 1, it prefers to be sorbed in the bilipid membrane (FIG. 3). […] The fluorescence intensity of the BODIPY dye molecules in single vesicles was monitored using a confocal fluorescence microscope by continuously scanning a small area (20×20 μm^2).
As the UV illumination time increased from 0 to 15 minutes, the fluorescence intensity of the vesicles became dimmer (FIG. 4E). […] The average fluorescence intensity drop of 20 vesicles was 70±6% (mean±standard deviation) in the first 15 minutes of UV exposure. […]

**Q.** COc1cc(C#Cc2ccc(C3=C4C(C)=C(C#CC56CC7CC(CC(C7)C5)C6)C(C)=[N+]4[B-](F)(F)n4c(C)c(C#CC56CC7CC(CC(C7)C5)C6)c(C)c43)cc2)c(OC)cc1C#Cc1ccc(C2=C3C(C)=C(C#CC45CC6CC(CC(C6)C4)C5)C(C)=[N+]3[B-](F)(F)n3c(C)c(C#CC45CC6CC(CC(C6)C4)C5)c(C)c32)cc1 [Compound 16] was tested. Which “average fluorescence intensity drop of BODIPY in 20 vesicles (mean±standard deviation)” value did it give?
**A.** 9%±20%
